This data set can be described thus: Heat exposure of muscimol during distillation. Format: physicochemical. Particulars: after being exposed to heat for 3 hours (distillation). The method, then: In one example, distillation is performed for about 0.5 hours to about 6 hours. In some embodiments, distillation is performed for about 5 to about 6 hours. In another example, it is performed for about 2 to about 3 hours. In another example, it is performed for about 3 hours. […] However, in some embodiments, further distillation beyond 3 hours, such as 4 hours, 5 hours, 6 hours, or more than 6 hours, may be advantageous. In some embodiments, the resulting muscimol extract is a liquid.
The refluxed extract was then distilled for a period of 3 hours. Samples were taken prior to distillation, after 1 hour, 2 hours, and at 3 hours of distillation, as discussed further below. After distillation, the filtrate was cooled to 3° C. in a refrigerator. After about 3 hours of cooling, there was coagulated material suspended in the filtrate. The coagulated material in the filtrate was removed via vacuum filtration through the vacuum filtration setup described above (without the cheesecloth). After filtration, the filter setup was rinsed under vacuum with 30 mL of distilled water into the filtrate.

Our source for the stability to heat values is patent publication US20240165180A1, “Processes for Extracting Muscimol from Amanita Muscaria” (priority 2021, published 2024).

Take `NCc1cc(=O)[nH]o1` [muscimol, 5-(Aminomethyl)-1,2-oxazol-3(2H)-one]: the stability to heat entry is listed as “begins degrading (to a very minimal degree)”.
